Data on 36 compounds can be found in patent publication US8754100B2, “Nitrogen-containing fused heterocyclic compounds and their use as beta amyloid production inhibitors” (EISAI R&D Management Co., Ltd., priority 2009, dated 2014).

The first assay has as its system Aβ42 production in rat primary neuronal culture. Briefly: Quantification of Aβ peptide (Aβ42 ELISA) in culture of neurons from rat fetus brain. In kind it is cell-based. As to conditions: Rattus norvegicus, Neuron, 72 h; primary neuronal culture from cerebral cortex of embryonic day 18 Wistar rats; cultured three days after addition of compound; Aβ42 in medium by ELISA; read-out: Aβ42 Production reducing action IC50. Here is the method:
Quantification of Aβ Peptide in Culture of Neurons from Rat Fetus Brain
(1) Rat Primary Neuronal Culture
Primary neuronal cultures were prepared from the cerebral cortex of embryonic day 18 Wistar rats (Charles River Japan, Yokohama, Japan). Specifically, the embryos were aseptically removed from pregnant rats under ether anesthesia. The brain was isolated from the embryo and immersed in an ice-cold L-15 medium (Invitrogen Corp. Cat #11415-064, Carlsbad, Calif., USA, or SIGMA L1518, for example). The cerebral cortex was collected from the isolated brain under a stereoscopic microscope. The cerebral cortex fragments collected were enzymatically treated in an enzyme solution containing 0.25% trypsin (Invitrogen Corp. Cat #15050-065, Carlsbad, Calif., USA) and 0.01% DNase (Sigma D5025, St. Louis, Mo., USA) at 37° C. for 30 minutes to disperse the cells. Here, the enzymatic reaction was stopped by adding inactivated horse serum to the solution. The enzymatically treated solution was centrifuged at 1,500 rpm for five minutes to remove the supernatant 5 to 10 ml of a medium was added to the resulting cell mass. Neurobasal medium (Invitrogen Corp. Cat #21103-049, Carlsbad, Calif., USA) supplemented with 2% B27 supplement (Invitrogen Corp. Cat #17504-044, Carlsbad, Calif., USA), 25 μM 2-mercaptoethanol (2-ME, WAKO Cat #139-06861, Osaka, Japan), 0.5 mM L-glutamine (Invitrogen Corp. Cat #25030-081, Carlsbad, Calif., USA), and Antibiotics-Antimycotics (Invitrogen Corp. Cat #15240-062, Carlsbad, Calif., USA) was used as the medium (Neurobasal/B27/2-ME). However, the above Neurobasal medium not supplemented with 2-ME (Neurobasal/B27) was used for the assay. The cells were redispersed by mild pipetting of the cell mass to which the medium was added. The cell dispersion was filtered through a 40-μm nylon mesh (Cell Strainer, Cat #35-2340, Becton Dickinson Labware, Franklin Lakes, N.J., USA) to remove the remaining cell mass, and thus a neuronal cell suspension was obtained. The neuronal cell suspension was diluted with the medium and then plated in a volume of 100 μl/well at an initial cell density of 5×10^5 cells/cm^2 in a 96-well polystyrene culture plate pre-coated with poly-L or D-lysine (Falcon Cat #35-3075, Becton Dickinson Labware, Franklin Lakes, N.J., USA coated with poly-L-lysine using the method shown below, or BIOCOAT™ cell environments Poly-D-lysine cell ware 96-well plate, Cat #35-6461, Becton Dickinson Labware, Franklin Lakes, N.J., USA). Poly-L-lysine coating was carried out as follows. 100 μg/ml of a poly-L-lysine (SIGMA P2636, St. Louis, Mo., USA) solution was aseptically prepared with a 0.15 M borate buffer (pH 8.5). […] Thereafter, the coated 96-well polystyrene culture plate was washed with sterile water four or more times, and then dried or rinsed with sterile PBS or medium, and used for cell plating. The plated cells were cultured in the culture plate at 37° C. in 5% CO2-95% air for one day. Then, the total amount of the medium was replaced with a fresh Neurobasal/B27/2-ME medium, and then the cells were cultured for further three days.
The drug was added to the culture plate on Day 4 of culture as follows. The total amount of the medium was removed from the wells, and 180 μl/well of Neurobasal medium not containing 2-ME and containing 2% B-27 (Neurobasal/B27) was added thereto. A solution of the test compound in dimethyl sulfoxide (hereinafter abbreviated as DMSO) was diluted with Neurobasal/B27 to a concentration 10-fold higher than the final concentration. 20 μl/well of the dilution was added to and sufficiently mixed with the medium. The final DMSO concentration was 1% or less. Only DMSO was added to the control group.
The cells were cultured for three days after addition of the compound, and the total amount of the medium was collected. The resulting medium was used as an ELISA sample. […]
For orientation: IC50 means the concentration that gives 50% inhibition. Take `COc1nc(-c2nc3n(n2)CCC[C@H]3c2ccc(N3CCCCC3)cc2Cl)ccc1-n1cnc(C)c1` [Example 295]: the IC50 was 33 nM. `COc1nc(-c2cn3c(n2)[C@H](c2ccc(Br)cc2C(F)(F)F)CCC3)ccc1-n1cnc(C)c1` [Example 100, (−)-8-(4-bromo-2-trifluoromethylphenyl)-2-[6-methoxy-5-(4-methylimidazol-1-yl)pyridin-2-yl]-5,6,7,8-tetrahydroimidazo[1,2-a]pyridine]: the IC50 was 9 nM. On the same count and under the same terms, to `COc1cc(C)c(C2CCCn3nc(-c4ccc(-n5cnc(C)c5)c(OC)n4)nc32)cc1C(C)C` (single isomer, unassigned; (-)) [Example 2, (−)-8-(5-isopropyl-4-methoxy-2-methylphenyl)-2-[6-methoxy-5-(4-methylimidazol-1-yl)pyridin-2-yl]-5,6,7,8-tetrahydro[1,2,4]triazolo[1,5-a]pyridine] belongs 10 nM; to `COc1nc(-c2nc3n(n2)CCC[C@H]3c2cc(C(C)(C)C)ccc2Br)ccc1-n1cnc(C)c1` [Example 199], 6 nM; to `COc1nc(-c2nc3n(n2)CCC[C@@H]3c2cc(-c3ccc(C(F)(F)F)cn3)ccc2Cl)ccc1-n1cnc(C)c1` (stereo in doubt) [Example 361, (−)-8-[2-chloro-5-(5-trifluoromethylpyridine-2-yl)phenyl]-2-[6-methoxy-5-(4-methyl-1H-imidazole-1-yl)pyridine-2-yl]-5,6,7,8-tetrahydro[1,2,4]triazolo[1,5-a]pyridine], 13 nM.

With `COc1nc(-c2nc3n(n2)CCC[C@H]3c2ccc3c(c2)C(C)(C)CN3CC(F)(F)F)ccc1-n1cnc(C)c1` [Example 337], the IC50 was 13 nM. Same read-out and setting: to `COc1cc([C@@H]2CCCn3nc(-c4ccc(-n5cnc(C)c5)c(OC)n4)nc32)ccc1C(C)(C)C` [Example 191] belongs 7 nM; to `COc1nc(-c2cn3c(n2)[C@H](c2cccc(C(C)(C)C)c2OC)CCC3)ccc1-n1cnc(C)c1` [Example 239], 12 nM; to `COc1nc(-c2nc3n(n2)CCC[C@H]3c2cc(N3CCCCC3)ccc2Br)ccc1-n1cnc(C)c1` [Example 279], 8 nM. On the same count and under the same terms, to `COc1nc(-c2nc3n(n2)CCC[C@H]3c2ccc(Cl)c(N3CCCCC3)c2)ccc1-n1cnc(C)c1` [Example 287] belongs 22 nM; to `COc1nc(-c2nc3n(n2)CCC[C@H]3c2cc(N3CCCC3)ccc2Cl)ccc1-n1cnc(C)c1` [Example 347], 30 nM; to `COc1nc(-c2nc3n(n2)CCC[C@H]3c2cc(N(CC3CC3)CC3CC3)ccc2Cl)ccc1-n1cnc(C)c1` [Example 315], 4 nM.

For the compound `COc1ccc(C(C)(C)C(F)(F)F)cc1[C@@H]1CCCn2nc(-c3ccc(-n4cnc(C)c4)c(OC)n3)nc21` [Example 331], the IC50 was found to be 12 nM. On the same count and under the same terms, to `COc1cc([C@@H]2CCCn3nc(-c4ccc(-n5cnc(C)c5)c(OC)n4)nc32)cc(C(C)(C)C)c1` [Example 187] belongs 11 nM; to `COc1nc(-c2cn3c(n2)[C@H](c2cc(C(C)(C)C#N)ccc2Cl)CCC3)ccc1-n1cnc(C)c1` [Example 245], 16 nM; to `COc1nc(-c2cn3c(n2)[C@H](c2ccc(Cl)cc2C(F)(F)F)CCC3)ccc1-n1cnc(C)c1` (single isomer, unassigned) [Example 108, (−)-8-(4-chloro-2-trifluoromethylphenyl)-2-[6-methoxy-5-(4-methylimidazol-1-yl)pyridin-2-yl]-5,6,7,8-tetrahydroimidazo[1,2-a]pyridine], 18 nM. The same measure, in the same setting: next, `COc1nc(-c2nc3n(n2)CCC[C@H]3c2cc(C(C)(C)C)c(F)cc2F)ccc1-n1cnc(C)c1` [Example 211]: 15 nM. On the same count and under the same terms, to `COc1nc(-c2nc3n(n2)CCC[C@H]3c2cc(C(C)(C)C)ccc2F)ccc1-n1cnc(C)c1` [Example 197] belongs 13 nM; to `COc1nc(-c2nc3n(n2)CCC[C@H]3c2cc(N(CC3CC3)CC(F)(F)F)ccc2Cl)ccc1-n1cnc(C)c1` [Example 313], 6 nM.

On to `COc1cc([C@@H]2CCCn3cc(-c4ccc(-n5cnc(C)c5)c(OC)n4)nc32)ccc1C(C)(C)C` [Example 240], for which the IC50 stood at 5 nM. On the same count and under the same terms, next, `COc1nc(-c2nc3n(n2)CCC[C@H]3c2cc(-c3ccccc3)ccc2Cl)ccc1-n1cnc(C)c1` [Example 359]: 16 nM. `COc1nc(-c2cn3c(n2)[C@H](c2ccccc2C(F)(F)F)CC3)ccc1-n1cnc(C)c1` (single isomer, unassigned) [Example 104, (−)-2-[6-methoxy-5-(4-methylimidazol-1-yl)pyridin-2-yl]-7-(2-trifluoromethylphenyl)-6,7-dihydro-5H-pyrrolo[1,2-a]imidazole]: the IC50 came out at 91 nM. The same measure, in the same setting: next, `COc1nc(-c2nc3n(n2)CCC[C@H]3c2cc(N3CCC(C(F)(F)F)CC3)ccc2Cl)ccc1-n1cnc(C)c1` [Example 317]: 15 nM. On the same count and under the same terms, next, `COc1nc(-c2nc3n(n2)CCC[C@H]3c2cc(N3CC(C)CC(C)C3)ccc2Cl)ccc1-n1cnc(C)c1` (stereo partly drawn) [Example 319]: 10 nM. The same measure, in the same setting: next, `COc1nc(-c2nc3n(n2)CCC[C@@H]3c2cc(C(C)(C)OC)ccc2Cl)ccc1-n1cnc(C)c1` [Example 267, (−)-2-[6-methoxy-5-(4-methyl-1H-imidazol-1-yl)pyridin-2-yl]-8-(2-chloro-5-(1-methoxy-1-methylethyl)phenyl)-5,6,7,8-tetrahydro[1,2,4]triazolo[1,5-a]pyridine]: 29 nM. Take `COc1nc(-c2nc3n(n2)CCC[C@H]3c2ccc(N3CCCCCC3)cc2)ccc1-n1cnc(C)c1` [Example 383]: the IC50 was 21 nM. Same read-out and setting: to `COc1nc(-c2nc3n(n2)CCC[C@H]3c2ccc(N(CC3CC3)CC(F)(F)F)cc2Cl)ccc1-n1cnc(C)c1` [Example 307] belongs 13 nM; to `COc1nc(-c2nc3n(n2)CCC[C@H]3c2cc(N3CCC(C)CC3)ccc2Cl)ccc1-n1cnc(C)c1` [Example 311], 12 nM. Take `COc1nc(-c2nc3n(n2)CCC[C@H]3c2cc(C(C)(C)C#N)c(Cl)cc2Cl)ccc1-n1cnc(C)c1` [Example 225]: the IC50 was 28 nM. Regarding `COc1nc(-c2nc3n(n2)CCC[C@H]3c2ccc(N(CC(F)(F)F)C3CC3)cc2Cl)ccc1-n1cnc(C)c1` [Example 309], the IC50 came out at 14 nM. On to `COc1nc(-c2cn3c(n2)[C@H](c2cc(Br)ccc2C(F)(F)F)CCC3)ccc1-n1cnc(C)c1` [Example 250], for which the IC50 amounted to 13 nM. Regarding `COc1nc(-c2nc3n(n2)CCC[C@H]3c2cccc(C(C)(C)C)c2)ccc1-n1cnc(C)c1` [Example 193], the IC50 was 13 nM.

Regarding `COc1nc(-c2cn3c(n2)[C@H](c2ccc(C(C)(C)C#N)cc2Cl)CCC3)ccc1-n1cnc(C)c1` [Example 246], the IC50 is 55 nM. As for `COc1nc(-c2cn3c(n2)[C@H](c2ccc(C(C)(C)C)cc2)CCC3)ccc1-n1cnc(C)c1` [Example 242], the IC50 was determined as 9 nM.

The same assay, now with this note: primary neuronal culture from cerebral cortex of embryonic day 18 Wistar rats; cultured three days after addition of compound; Aβ42 in medium by ELISA; read-out: Aβ42 Production reducing action IC50.
Turning to `COc1ccc([C@@H]2CCCn3nc(-c4ccc(-n5cnc(C)c5)c(OC)n4)nc32)cc1C(C)(C)C` [Example 59], the IC50 came out at 7 nM. As to `COc1nc(-c2nc3n(n2)CCC[C@H]3c2ccc(Br)cc2C(F)(F)F)ccc1-n1cnc(C)c1` [Example 42, −8-4-bromo-2-trifluoromethylphenyl-2-[6-methoxy-5-(4-methylimidazol-1-yl)pyridin-2-yl]-5,6,7,8-tetrahydro[1,2,4]triazolo[1,5-a]pyridine], the IC50 stood at 52 nM.
